Reference: US11590116B2 (THERAVANCE BIOPHARMA R&D IP, LLC, priority 2019, dated 2023)

How the values were obtained:
[1] = biological target: T1, recombinant human ALK5 (TGF-βR1) protein (Homo sapiens, UniProt P36897); experiment: Biochemical ALK5 (TGF-βR1) assay to measure pKi (LANCE Ultra ULight kinase assay); conditions: apparent pKi from pIC50 by Cheng-Prusoff, read-out: ALK5 pKi (converted)
T1 construct: purchased Life Technologies PR9075A
T1 sequence (P36897 34-503): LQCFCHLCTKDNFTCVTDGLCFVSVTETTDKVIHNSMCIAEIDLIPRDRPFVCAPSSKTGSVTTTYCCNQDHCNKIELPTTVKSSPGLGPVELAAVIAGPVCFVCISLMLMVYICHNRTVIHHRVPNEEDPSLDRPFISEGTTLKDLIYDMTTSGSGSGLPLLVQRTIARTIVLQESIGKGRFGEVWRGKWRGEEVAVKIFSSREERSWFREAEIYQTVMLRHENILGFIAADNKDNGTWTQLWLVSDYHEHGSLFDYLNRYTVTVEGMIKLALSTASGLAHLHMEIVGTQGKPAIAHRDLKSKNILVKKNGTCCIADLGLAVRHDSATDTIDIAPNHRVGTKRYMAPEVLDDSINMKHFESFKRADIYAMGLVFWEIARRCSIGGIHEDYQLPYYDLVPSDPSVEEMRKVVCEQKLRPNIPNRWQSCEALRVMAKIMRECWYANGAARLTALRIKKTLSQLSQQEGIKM
How it was run: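 Compounds (10 μM to 25 pM) preincubated 60 minutes at room temperature with enzyme, then reaction run 60 minutes at 37° C with ATP added as 125 μM (5× final). Stopped with EDTA plus Eu-anti-phospho-Topoisomerase 2-alpha (Thr1342) antibody, TR-FRET read at 665 nm; pIC50 converted to pKi via Cheng-Prusoff.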

[2] = test system: TGF-β-stimulated SMAD3 phosphorylation in BEAS-2B cells; experiment: Cellular ALK5 potency assay, inhibition of TGF-β stimulated pSMAD3 formation in BEAS-2B cells; assay type: cell-based; conditions: Homo sapiens; inhibition of TGF-β stimulated pSMAD3 formation, BEAS-2B cells; read-out: BEAS2B pIC50 (converted)
How it was run: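 BEAS-2B human lung epithelial cells, seeded overnight, were pre-treated with compound in HBSS/25 mM HEPES/1% BSA for 1 h at 37 °C, then stimulated with TGF-β (final 10 ng/mL) for 30 min. Lysates were assayed for pSMAD3 by AlphaLISA; pIC50 came from dose-dependent signal change versus TGF-β-stimulated untreated cells.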

Ki [1] | Compound | IC50 [2]
0.398 to 3.16 nM | Cc1cccc(-c2nnn(Cc3ccccc3)c2-c2ccc3ncc(-c4c[nH]nc4C(F)(F)F)cc3n2)n1 [Compound 288, 2-[3-benzyl-5-(6-methyl-2-pyridyl)triazol-4-yl]-7-[3-(trifluoromethyl)-1H-pyrazol-4-yl]-1,5-naphthyridine] | 25.1 to 158 nM
0.398 to 3.16 nM | Cc1nc(-c2n[nH]cc2-c2ccc3ncc(-c4cc5c(nn4)CCNC5)cc3n2)ccc1F [Compound 289, 3-[6-[3-(5-fluoro-6-methyl-2-pyridyl)-1H-pyrazol-4-yl]-1,5-naphthyridin-3-yl]-5,6,7,8-tetrahydropyrido[4,3-c]pyridazine] | 200 to 1260 nM
0.0398 to 0.316 nM | Cc1nc(-c2nc3ccccn3c2-c2ccc3ncc(NCCN4CCN(C(C)C)CC4)cc3n2)ccc1F [Compound 290, 6-[2-(5-fluoro-6-methyl-2-pyridyl)imidazo[1,2-a]pyridin-3-yl]-N-[2-(4-isopropylpiperazin-1-yl)ethyl]-1,5-naphthyridin-3-amine] | 25.1 to 158 nM
3.98 to 31.6 nM | Cc1cccc(-c2n[nH]cc2-c2ccc3nc(C4CCCN4)c(-c4cn[nH]c4)cc3c2)n1 (centres unmarked) [Compound 291, 6-[3-(6-methyl-2-pyridyl)-1H-pyrazol-4-yl]-3-(1H-pyrazol-4-yl)-2-pyrrolidin-2-yl-quinoline] | 1580 to 10000 nM
< 0.0316 nM | Cc1cccc(-c2n[nH]cc2-c2ccc3ncc(N4CCN(CCN(C)C)CC4)cc3n2)n1 [Compound 292, N,N-dimethyl-2-[4-[6-[3-(6-methyl-2-pyridyl)-1H-pyrazol-4-yl]-1,5-naphthyridin-3-yl]piperazin-1-yl]ethanamine] | 25.1 to 158 nM
0.0398 to 0.316 nM | Cc1cccc(-c2nc3ccccn3c2-c2ccc3ncc(NCCN4CCN(C(C)C)CC4)cc3c2)n1 [Compound 293, N-(2-(4-isopropylpiperazin-1-yl)ethyl)-6-(2-(6-methylpyridin-2-yl)imidazo[1,2-a]pyridin-3-yl)quinolin-3-amine] | 25.1 to 158 nM
0.0398 to 0.316 nM | Cc1cccc(-c2[nH]cnc2-c2ccc3ncc(C4=CCC5(CC4)CNC5)cc3c2)n1 [Compound 294, 3-(2-azaspiro[3.5]non-6-en-7-yl)-6-[5-(6-methyl-2-pyridyl)-1H-imidazol-4-yl]quinoline] | 25.1 to 158 nM
0.0398 to 0.316 nM | Cc1cccc(-c2n[nH]cc2-c2ccc3ncc(-c4cnn(CC(=O)N5CCNCC5)c4)cc3n2)n1 [Compound 295, 2-[4-[6-[3-(6-methyl-2-pyridyl)-1H-pyrazol-4-yl]-1,5-naphthyridin-3-yl]pyrazol-1-yl]-1-piperazin-1-yl-ethanone] | 200 to 1260 nM
3.98 to 31.6 nM | Cc1cccc(-c2n[nH]cc2-c2ccc3ncc(N[C@@]45C[C@@H]6C[C@@H](C[C@@](N)(C6)C4)C5)cc3n2)n1 [Compound 297, rac-(5S,7R)-N1-[6-[3-(6-methyl-2-pyridyl)-1H-pyrazol-4-yl]-1,5-naphthyridin-3-yl]adamantane-1,3-diamine] | 200 to 1260 nM
< 0.0316 nM | Cc1cccc(-c2n[nH]cc2-c2ccc3ncc(N4CCN(CC#N)CC4)cc3n2)n1 [Compound 299, 2-[4-[6-[3-(6-methyl-2-pyridyl)-1H-pyrazol-4-yl]-1,5-naphthyridin-3-yl]piperazin-1-yl]acetonitrile] | < 20 nM
< 0.0316 nM | Cc1cccc(-c2n[nH]cc2-c2ccc3ncc(N)cc3n2)n1 [Compound 300, 6-[3-(6-methyl-2-pyridyl)-1H-pyrazol-4-yl]-1,5-naphthyridin-3-amine] | < 20 nM
0.0398 to 0.316 nM | Cc1cccc(-c2[nH]nnc2-c2ccc3ncc(-c4cn[nH]c4)cc3n2)n1 [Compound 301, 2-[5-(6-methyl-2-pyridyl)-1H-triazol-4-yl]-7-(1H-pyrazol-4-yl)-1,5-naphthyridine] | 25.1 to 158 nM
0.0398 to 0.316 nM | COC(=O)N1CCc2nnc(-c3cnc4ccc(-c5c[nH]nc5-c5ccc(F)c(C)n5)nc4c3)cc2C1 [Compound 303, methyl 3-[6-[3-(5-fluoro-6-methyl-2-pyridyl)-1H-pyrazol-4-yl]-1,5-naphthyridin-3-yl]-7,8-dihydro-5H-pyrido[4,3-c]pyridazine-6-carboxylate] | 25.1 to 158 nM
0.0398 to 0.316 nM | Cc1cccc(-c2n[nH]cc2-c2ccc3ncc(N4CC5CN(C)CC54)cc3n2)n1 (centres unmarked) [Compound 304, 7-(3-methyl-3,6-diazabicyclo[3.2.0]heptan-6-yl)-2-[3-(6-methyl-2-pyridyl)-1H-pyrazol-4-yl]-1,5-naphthyridine] | 25.1 to 158 nM
< 0.0316 nM | Cc1cccc(-c2n[nH]cc2-c2ccc3ncc(-c4cnn(CCN)c4)cc3n2)n1 [Compound 305, 2-[4-[6-[3-(6-methyl-2-pyridyl)-1H-pyrazol-4-yl]-1,5-naphthyridin-3-yl]pyrazol-1-yl]ethanamine] | 25.1 to 158 nM
< 0.0316 nM | CNCCn1cc(-c2cnc3ccc(-c4c(-c5cccc(C)n5)[nH]c5ncccc45)cc3c2)cn1 [Compound 306, N-methyl-2-(4-(6-(2-(6-methylpyridin-2-yl)-1H-pyrrolo[2,3-b]pyridin-3-yl)quinolin-3-yl)-1H-pyrazol-1-yl)ethan-1-amine] | 25.1 to 158 nM
0.0398 to 0.316 nM | Cc1cccc(-c2[nH]cnc2-c2ccc3ncc(N4CCCNCC4)cc3n2)n1 [Compound 307, 7-(1,4-diazepan-1-yl)-2-(5-(6-methylpyridin-2-yl)-1H imidazol-4-yl)-1,5-naphthyridine] | 25.1 to 158 nM
0.0398 to 0.316 nM | Cc1cccc(-c2n[nH]cc2-c2ccc3ncc(-c4cnn5c4CNCC5)cc3n2)n1 [Compound 308, 2-[3-(6-methyl-2-pyridyl)-1H-pyrazol-4-yl]-7-(4,5,6,7-tetrahydropyrazolo[1,5-a]pyrazin-3-yl)-1,5-naphthyridine] | < 20 nM
< 0.0316 nM | Cc1cccc(-c2[nH]cnc2-c2ccc3ncc(C4=CCN(C)C4)cc3n2)n1 [Compound 309, 7-(1-methyl-2,5-dihydropyrrol-3-yl)-2-[5-(6-methyl-2-pyridyl)-1H-imidazol-4-yl]-1,5-naphthyridine] | 25.1 to 158 nM
0.0398 to 0.316 nM | Cc1cccc(-c2[nH]cnc2-c2ccc3ncc(-c4ccc(C(=O)OC5CCNCC5)cc4)cc3c2)n1 [Compound 310, 4-piperidyl 4-[6-[5-(6-methyl-2-pyridyl)-1H-imidazol-4-yl]-3-quinolyl]benzoate] | 25.1 to 158 nM
0.0398 to 0.316 nM | CNCCN1CCCN(c2cnc3ccc(-c4c[nH]nc4-c4cccc(C)n4)nc3c2)CC1 [Compound 311, N-methyl-2-[4-[6-[3-(6-methyl-2-pyridyl)-1H-pyrazol-4-yl]-1,5-naphthyridin-3-yl]-1,4-diazepan-1-yl]ethanamine] | 200 to 1260 nM
0.0398 to 0.316 nM | Cc1cccc(-c2[nH]cnc2-c2ccc3ncc(NCCN4C[C@@H](C)N[C@@H](C)C4)cc3c2)n1 [Compound 313, N-(2-((3R,5S)-3,5-dimethylpiperazin-1-yl)ethyl)-6-(5-(6-methylpyridin-2-yl)-1H-imidazol-4-yl)quinolin-3-amine] | 25.1 to 158 nM
3.98 to 31.6 nM | CNCCn1cc(-c2cnc3ccc(-c4nnn(Cc5ccccc5)c4-c4cccc(C)n4)cc3c2)cn1 [Compound 314, 2-[4-[6-[1-benzyl-5-(6-methyl-2-pyridyl)triazol-4-yl]-3-quinolyl]pyrazol-1-yl]-N-methyl-ethanamine] | 1580 to 10000 nM
0.0398 to 0.316 nM | Cc1cccc(-c2n[nH]cc2-c2ccc3ncc(-c4nc5n(n4)CCNC5)cc3c2)n1 [Compound 315, 6-[3-(6-methyl-2-pyridyl)-1H-pyrazol-4-yl]-3-(5,6,7,8-tetrahydro-[1,2,4]triazolo[1,5-a]pyrazin-2-yl)quinoline] | 25.1 to 158 nM
< 0.0316 nM | Cc1cccc(-c2n[nH]cc2-c2ccc3ncc(N4CCC(N)CC4)cc3n2)n1 [Compound 316, 1-[6-[3-(6-methyl-2-pyridyl)-1H-pyrazol-4-yl]-1,5-naphthyridin-3-yl]piperidin-4-amine] | 25.1 to 158 nM
0.0398 to 0.316 nM | Cc1cccc(-c2n[nH]cc2-c2ccc3ncc(-c4cnco4)cc3n2)n1 [Compound 317, 5-[6-[3-(6-methyl-2-pyridyl)-1H-pyrazol-4-yl]-1,5-naphthyridin-3-yl]oxazole] | < 20 nM
0.0398 to 0.316 nM | Cc1nc(-c2n[nH]cc2-c2ccc3ncc(N4CCCNCC4)cc3n2)ccc1F [Compound 318, 7-(1,4-diazepan-1-yl)-2-[3-(5-fluoro-6-methyl-2-pyridyl)-1H-pyrazol-4-yl]-1,5-naphthyridine] | 25.1 to 158 nM
< 0.0316 nM | Cc1cccc(-c2[nH]cnc2-c2ccc3ncc(C4=CCN(C(C)C)C4)cc3c2)n1 [Compound 319, 3-(1-isopropyl-2,5-dihydropyrrol-3-yl)-6-[5-(6-methyl-2-pyridyl)-1H-imidazol-4-yl]quinoline] | 25.1 to 158 nM
